{"source": "patent US5919653A", "about": "“Nucleic acids encoding a human glycine transporter” (Allelix Neuroscience Inc., priority 1996, dated 1999)", "target": "human GlyT-2 glycine transporter (clone pHGT2, SEQ ID 20 nucleic acid / SEQ ID 21 protein) (Homo sapiens, UniProt Q9Y345, I279N/I611V)", "sequence (Q9Y345 whole entry I279N/I611V)": "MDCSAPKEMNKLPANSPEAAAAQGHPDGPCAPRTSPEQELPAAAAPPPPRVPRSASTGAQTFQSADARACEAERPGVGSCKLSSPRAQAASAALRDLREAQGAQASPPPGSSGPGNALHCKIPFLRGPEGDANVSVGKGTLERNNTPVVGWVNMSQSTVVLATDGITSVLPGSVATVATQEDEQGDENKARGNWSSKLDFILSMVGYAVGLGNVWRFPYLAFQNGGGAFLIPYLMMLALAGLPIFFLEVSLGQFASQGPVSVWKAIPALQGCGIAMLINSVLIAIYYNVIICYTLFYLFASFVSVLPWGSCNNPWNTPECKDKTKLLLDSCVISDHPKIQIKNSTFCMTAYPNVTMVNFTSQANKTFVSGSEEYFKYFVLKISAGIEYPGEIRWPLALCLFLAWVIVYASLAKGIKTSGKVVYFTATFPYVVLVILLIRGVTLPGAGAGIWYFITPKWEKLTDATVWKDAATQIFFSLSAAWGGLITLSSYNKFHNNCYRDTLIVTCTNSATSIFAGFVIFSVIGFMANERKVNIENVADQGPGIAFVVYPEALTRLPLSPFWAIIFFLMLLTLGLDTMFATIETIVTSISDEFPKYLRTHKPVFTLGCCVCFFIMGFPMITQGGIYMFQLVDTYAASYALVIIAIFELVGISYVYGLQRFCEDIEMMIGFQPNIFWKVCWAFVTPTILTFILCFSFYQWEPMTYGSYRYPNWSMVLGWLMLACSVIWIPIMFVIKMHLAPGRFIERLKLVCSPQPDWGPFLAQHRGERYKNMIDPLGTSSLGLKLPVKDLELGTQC", "experiment": "cell-based", "protocol": "Transient GlyT-transfected cells or control cells grown in accordance with Example 5 were washed three times with HEPES buffered saline (HBS). The control cells were treated precisely as the GlyT-transfected cells except that the transfection procedure omitted any cDNA. […] The cells were then incubated another 20 minutes at 37° C., after which the cells were washed three times with ice-cold HBS. Scintillant was added to the cells, the cells were shaken for 30 minutes, and the radioactivity in the cells was counted using a scintillation counter. Data were compared between the cells contacted or not contacted by a prospective agent, and, where relevant, between cells having GlyT-1 activity versus cells having GlyT-2 activity, depending on the assay being conducted.\nData points represent means±SEM from an experiment performed in quadruplicate."}
{"smiles": "NCC(=O)O", "note": "[glycine]", "values": [{"measurement": "IC50", "value": 40, "unit": "µM"}]}
